Measurements as given in US6391917B1, “Dialkyl ureas as calcitonin mimetics” (ZymoGenetics, Inc., priority 1998, dated 2002).

How the values were obtained:
[1] = Induction of hypocalcemia in rats; assay type: in vivo; conditions: weanling rats, tail vein, 0.5, 2.5, 5, 50 and 100 ng/rat, serum calcium one hour later
Method: This assay is based on the in vivo acute effect of calcitonin on osteoclasts, which causes rapid retraction of osteoclasts from bone surface (typically within 30 minutes) and which results in decreased bone resorption. See Mills, et al., in Endocrinology 1971—Proceedings of the Third International SymDosium, Taylor (ed), Heinemann Medical, London, pp. 79-88 (1972) and Singer, et al., Clin. Endocrinol. 5(Supp):333s-40s, 1976. The assay method was modified from the method described by Sturtridge and Kumar, Lancet 545:725-6, 1968. For the assay of hypocalcemic activity, weanling male Holtzman Sprague-Dawley rats (22 days old) are infused with vehicle (PBS with 1 mM HCl and 0.1% BSA), calcitonin or calcitonin mimetics through the tail vein. One hour later, blood samples are collected by orbital sinus puncture to determine serum levels of calcium. A decrease in serum calcium indicates a hypocalcemic response. The hypocalcemic response is dose-dependent as determined using salmon calcitonin (0.5, 2.5, 5, 50 and 100 ng/rat) in this model. Inhibition of PTH-induced hypercalcemia in TPTX rats

[2] = molecular target: T1, Human calcitonin receptor (Homo sapiens, UniProt P30988); assay: CRE-luciferase assay for calcitonin mimetics (Hollex-1); assay type: cell-based
T1 construct: expressed in transfected cells; host or cells: BHK-570 (Hollex-1)
T1 sequence (P30988 25-474): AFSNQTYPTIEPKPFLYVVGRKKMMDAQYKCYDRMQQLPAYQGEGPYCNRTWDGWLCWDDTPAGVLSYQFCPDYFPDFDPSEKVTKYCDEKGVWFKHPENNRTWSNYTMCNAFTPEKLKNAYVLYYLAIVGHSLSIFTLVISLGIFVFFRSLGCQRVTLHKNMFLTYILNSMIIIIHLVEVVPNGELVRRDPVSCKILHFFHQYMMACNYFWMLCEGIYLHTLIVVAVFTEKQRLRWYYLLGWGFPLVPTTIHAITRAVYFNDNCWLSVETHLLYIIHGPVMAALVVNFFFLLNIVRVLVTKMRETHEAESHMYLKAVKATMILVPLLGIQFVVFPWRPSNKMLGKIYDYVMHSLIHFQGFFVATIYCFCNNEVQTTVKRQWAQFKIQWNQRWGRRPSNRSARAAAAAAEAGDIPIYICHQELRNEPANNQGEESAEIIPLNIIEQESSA
Method: CRE-Luciferase Assay Method for Calcitonin Mimetics
Human calcitonin receptor-positive and receptor-negative BHK-570 (Baby Hamster Kidney) cell lines were maintained by serial passage in growth medium (DMEM supplemented with 10% heat-inactivated fetal calf serum (HI-FCS), 2 mM L-glutamine, 1 mM sodium pyruvate, 250 nM MTX, and 1 mg/mL G418). On the day prior to assay, cells were trypsinized, adjusted to 2.5×10^5 cells/ml in growth medium, plated in opaque white Dynatech Microlite microtiter tissue culture plates at 50 μL/well, and grown overnight to confluence (37° C., 5% CO2 atmosphere).
Test substances were prepared in DMSO or 10% DMF at 100 times the final desired assay concentration. […] Controls were included on each plate: untreated wells (basal), […], and 100 nM human calcitonin. DMSO or DMF was included in control wells at a concentration equal to that in test samples (not to exceed a final assay concentration of 2% DMSO or 0.5% DMF, with a preferred maximum of 1% DMSO or 0.1% DMF).
Plates were incubated for 3 to 8 hours (4 hours preferred) at 37° C. in an atmosphere of 5% CO2. Following induction, luciferase activity was measured using a Promega luciferase assay kit (E1500) according to the assay kit protocol (Promega Corp., Madison, Wis.). Briefly, assay medium was removed and cells were washed once with phosphate buffered saline (PBS). After the wash, 25 μl of lysis buffer was added to each well, and the plates were incubated for 15 minutes at room temperature. Fifty microliters of Luciferase Assay Substrate (Promega, Corp.) was added to each well and the plates were transferred to a Labsystems Lumiscan microtiter luminometer (Labsystems Inc., Morton Grove, Ill.). The amount of luminescence (relative light units, RLU) was determined following a 0.1 second/well integration of signal. Basal (uninduced) luciferase signal was subtracted from all measurements, and the luciferase signal induced by test samples was expressed as a percentage of the signal in the calcitonin and forskolin controls. Specificity of the luciferase induction for calcitonin receptor-positive cell lines was determined by comparing the percent control values in the calcitonin receptor-positive line (Hollex-1) to those observed in the calcitonin receptor-negative cell line (KZ10-20-48/Zem 228) and the PTH receptor-positive cell line (KZ10-20-48/PTH-20) described below. Samples inducing a signal over the basal level were selected for further characterization, see Table 1 for examples.

[3] = system: PTH-induced bone resorption in mouse calvariae; assay: Calvarial assay: PTH-induced bone resorption, calcium release; assay type: cell-based; conditions: 1 nM PTH 1-34, 72 hours
Method: Calvaria from 4-day old neonatal CD-1 mice (pregnant mice received from Charles River Laboratories, Wilmington, Mass.) were trimmed with fine-tipped scissors to leave the parietal regions, including the sagittal suture. These trimmed bones were placed singly per well into 6-well cell culture cluster plates (Costar, Pleasanton, Calif.) with 1 ml/well of Dulbecco's […] Essential Medium, […] (DMEM, BioWhittaker, Walkersville, Md.) or Basal Eagle's Medium with Earle's salts (EMEM, Gibco/BRL, Grand Island, N.Y.) and 0.29 mg/ml L-glutamine, 1 mM sodium pyruvate, 15% heat-inactivated horse serum, and antibiotics (penicillin-G 50 μg/ml, streptomycin 50 μg/ml, and neomycin 100 μg/ml). Calvaria were rocked gently (RedRocker™, model PR50-115 V, Hoefer, San Francisco, Calif. or Labline Rocking Shaker, model 4635, Labline Instruments, Melrose Park, Ill.) at 37° C. in a 5% CO2 humidified incubator for 24 hours preincubation.
Following preincubation, medium was removed and replaced with 1.5 ml/well of growth medium containing 1 nM parathyroid hormone (PTH) 1-34 (Sigma) to stimulate bone resorption. For evaluation of the ability of calcitonin mimetics to inhibit PTH induced bone resorption, mimetic compounds in DMSO were added to the growth medium at concentrations ranging from 1-400 μg/ml (final assay concentration of DMSO less than or equal to 1%). In each experiment human calcitonin (0.02-2 nM, 0.2-2 nM preferred) was added to PTH treated bones as a positive control. […] All control wells contained a final assay concentration of DMSO equal to that present in calcitonin mimetic treated wells.
Five bones were included in each sample group. Bones were incubated for 72 hours following PTH addition to allow resorption of bone to occur. Observations were made of the general appearance, healthiness and number of cells. that migrate from the calvaria during the incubation as a possible indication of cell toxicity. Calvaria to be examined histologically were transferred to glass scintillation vials containing 10 ml of 10% neutral buffered formalin. […]

[4] = system: osteoclasts in mouse calvariae; assay: Calvaria histology (osteoclast number and size, toxicity); assay type: cell-based; conditions: mouse calvariae treated with PTH
From the text: To confirm the findings in the calvarial bone resorption assay employing calcium release from culture mouse calvariae, selected bones were fixed in 10% neutral buffered formalin and demineralized in 5% formic acid with 5% formalin. The bones were dehydrated through an ascending series of ethanol concentrations, infiltrated in glycol methacrylate, and embedded using a JB-4 embedding kit (PolySciences, Warrington, Pa.) (Liu, et al., J. Bone Mineral Res. 5:973-82, 1990). When necessary, an alternative embedding method (paraffin embedding) was used to speed up the embedding process. Cross sections of calvariae cut at 5 μm were obtained and stained for tartrate-resistant acid phosphatase (TRAP) activity and counterstained with methyl green and thionin for cell morphology (Liu, et al., ibid.). Osteoclasts were identified by TRAP stain, multinucleation, large cell size, and irregular cell shape. The number of osteoclasts were counted from endocranial and ectocranial bone surfaces and expressed as number/mm perimeter. The size of all the osteoclasts counted was also measured using a Bone Morphometry program (Liu, et al., ibid.; Bain, et al., J. Bone Miner. Res. 8:435-42, 1993). […] This PTH-induced increase was suppressed by treatment with human calcitonin.
Calcitonin mimetic compounds were evaluated in a similar fashion for their ability to suppress PTH-induced increases in osteoclast number and size (Table 2). Cell toxicity (or death) was also evaluated by the appearance of pyknotic nuclei in a small number of bone cells. With an increased level of toxicity, a further increase in the number of these pyknotic nuclei, detachment of cells from bone surfaces, and losses of cytoplasmic stain and cell boundaries were observed. The osteocytic space also appeared empty.

human PTH receptor = molecular target: T2, human PTH receptor (Homo sapiens, UniProt Q03431); assay: CRE-luciferase induction in clone KZ10-20-48/PTH-20; assay type: cell-based
T2 construct: expressed in transfected cells; host or cells: BHK570 clone KZ10-20-48 (KZ10-20-48/PTH-20)
T2 sequence (Q03431 27-593): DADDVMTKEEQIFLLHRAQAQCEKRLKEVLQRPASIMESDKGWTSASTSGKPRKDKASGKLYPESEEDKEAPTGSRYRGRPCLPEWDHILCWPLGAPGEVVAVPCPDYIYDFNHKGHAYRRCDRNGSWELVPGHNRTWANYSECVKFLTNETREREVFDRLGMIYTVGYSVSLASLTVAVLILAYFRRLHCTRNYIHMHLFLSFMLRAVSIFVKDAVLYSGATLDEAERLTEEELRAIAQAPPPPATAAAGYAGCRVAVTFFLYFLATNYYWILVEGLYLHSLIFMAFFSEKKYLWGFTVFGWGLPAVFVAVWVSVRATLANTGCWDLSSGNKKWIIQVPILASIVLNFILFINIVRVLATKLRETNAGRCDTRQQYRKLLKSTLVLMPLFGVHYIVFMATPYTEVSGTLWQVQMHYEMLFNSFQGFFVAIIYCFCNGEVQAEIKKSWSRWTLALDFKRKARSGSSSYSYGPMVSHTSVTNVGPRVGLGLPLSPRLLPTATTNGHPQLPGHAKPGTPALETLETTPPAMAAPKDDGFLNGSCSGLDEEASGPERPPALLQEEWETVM
From the text: Test substances that appear to specifically elevate luciferase expression in CT-R positive cells but not CT-R negative cells were subjected to an additional specificity check, i.e. their inability to activate other members of the G-protein coupled receptor family. The parathyroid hormone (PTH) receptor is another member of the G-protein coupled receptor family that transduces signal through adenylate cyclase mediated elevation of cAMP.

EC50 (human PTH receptor) [nM]	Compound	hypocalcemic response [1]	Luciferase induction (% of maximum luciferase induction produced by CT, 100 nM) ([2]; crude compound 6.25 μg/ml) [%]	Luciferase induction (% of maximum luciferase induction produced by CT, 100 nM) ([2]; crude compound 12.5 μg/ml) [%]	Luciferase induction (% of maximum luciferase induction produced by CT, 100 nM) ([2]; crude compound 25 μg/ml) [%]	Luciferase induction (% of maximum luciferase induction produced by CT, 100 nM) ([2]; crude compound 50 μg/ml) [%]	Release of PTH Induced Ca++ IC50 [3] [µg/mL]	Histology (bone destruction by PTH, Oc size and #) [4]
–	salmon calcitonin	dose-dependent	–	–	–	–	–	–
–	C=CCNC(=O)[C@@H](Cc1ccc2ccccc2c1)NC(=O)Nc1cc(C(C)(C)C)ccc1C(C)(C)C [628-035]	–	34.84	43.25	46.43	52.27	23	Decreases in bone
–	CC(C)(C)c1ccc(C(C)(C)C)c(NC(=O)N[C@H](Cc2ccc3ccccc3c2)C(=O)NCc2ccc3ccccc3c2)c1 [628-055]	–	24.81	35.48	43.3	48.69	14	Decreases in bone
2000	C=C[C@@]1(C)CC(=O)[C@]2(O)[C@@]3(C)[C@@H](O)CCC(C)(C)[C@@H]3[C@H](O)[C@H](OC(C)=O)[C@@]2(C)O1 [forskolin]	–	–	–	–	–	–	–
–	C=CCNC(=O)[C@@H](Cc1ccc(F)cc1)NC(=O)Nc1cc(C(C)(C)C)ccc1C(C)(C)C [628-033]	–	14.71	27.68	31.63	33.62	30	Decreases in bone
